# Assay results published in patent US20240246960A1 (adMare Therapeutics Society, priority 2021, published 2024).
# Read-outs that look alike come from different tables or passages of the source.
# What was measured:
# DNA-PK = biological target: T1, DNA-PK (Homo sapiens, UniProt P78527); experiment: DNA-PK Assay for Biochemical Enzymatic Inhibition (ADP Glo Kinase assay); conditions: Table 1
# T1 construct: purchased Invitrogen PR9107A
# Outline: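 Human DNA-PK (25 ng) preincubated 15 min with compounds (ten three-fold dilutions) in HEPES pH 7.5, MgCl2, KCl, calf thymus DNA buffer, then substrate 434.4 μM and ATP 64.4 μM (final) for 60 min at room temperature. ADP-Glo luminescence; percent inhibition fitted by four-parameter regression for IC50.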
# [1] = biological target: T2, pDNA-PK ser2056 induction in HCT116 spheroids (Homo sapiens, UniProt P78527); experiment: Multicellular tumour spheroid + radiation, pDNA-PK inhibition, HCT116; type: cell-based; conditions: 20 Gy
# T2 construct: endogenous in cells; host or cells: HCT116 multicellular tumour spheroids
# Outline: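 EC50 (μM) is concentration halving radiation-induced pDNA-PK ser2056, scored by fluorescent immunostaining of cryosections 2 h after 20 Gy. HCT116 tumour spheroids (~0.5 mm, stirred, 20% O2/5% CO2, 37 °C) exposed to serial dilutions from 10 or 5 μM to 3.5 nM starting 1 h before irradiation.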
# [2] = Example 7, spheroid, cell line HCT115 [sic], 20% O2, read-out: EC50 (pDNA-PK inhibition, immunohistochemical endpoint)
# [3] = Example 8, spheroid, read-out: Cell line: HCT116 Immunohistochemical endpoint pDNA-PK inhibition EC50
# [4] = Example 9 Study 2, 20% O2, read-out: Spheroid Cell line: HCT116 Immunohistochemical endpoint pDNA-PK inhibition EC50
IC50 (DNA-PK) [nM],"EC50 [1, 2] [nM]","EC50 [1, 3] [nM]","EC50 [1, 4] [nM]",SMILES
0.5 to 1,1000 to 10000,1000 to 10000,1000 to 10000,"Fc1cn([C@H]2CC[C@@H](Oc3nc(N4CCOCC4)cc4ncccc34)CC2)cn1 [Compound 17a, 4-(5-(((1s,4s)-4-(4-fluoro-1H-imidazol-1-yl)cyclohexyl)oxy)-1,6-naphthyridin-7-yl)morpholine]"
0.5 to 1,1000 to 10000,1000 to 10000,1000 to 10000,"Cc1nc(C(F)(F)F)cn1[C@H]1CC[C@@H](Oc2nc(N3CCOCC3)cc3ncccc23)CC1 [Compound 17i, 4-(5-(((1s,4s)-4-(2-methyl-4-(trifluoromethyl)-1H-imidazol-1-yl)cyclohexyl)oxy)-1,6-naphthyridin-7-yl)morpholine]"
< 0.5,500 to 1000,500 to 1000,500 to 1000,"FC(F)(F)c1cncn1[C@H]1CC[C@@H](Oc2nc(N3CCOCC3)cc3ncccc23)CC1 [Compound 17j, 4-(5-(((1s,4s)-4-(5-(trifluoromethyl)-1H-imidazol-1-yl)cyclohexyl)oxy)-1,6-naphthyridin-7-yl)morpholine]"
1 to 10,500 to 1000,500 to 1000,500 to 1000,"Oc1cnc2cc(N3CCOCC3)nc(O[C@H]3CC[C@@H](Nc4ncccn4)CC3)c2c1 [Compound 19a, 7-Morpholino-5-(((1s,4s)-4-(pyrimidin-2-ylamino)cyclohexyl)oxy)-1,6-naphthyridin-3-ol]"
1 to 10,10 to 500,10 to 500,10 to 500,"CCOCCOc1cnc(N[C@H]2CC[C@@H](Oc3nc(N4CCOCC4)cc4ncc(O)cc34)CC2)nc1 [Compound 19b, 5-(((1s,4s)-4-((5-(2-Ethoxyethoxy)pyrimidin-2-yl)amino)cyclohexyl)oxy)-7-morpholino-1,6-naphthyridin-3-ol]"
< 0.5,1000 to 10000,1000 to 10000,1000 to 10000,"COc1cnc(N[C@H]2CC[C@@H](Oc3nc(N4CCOCC4)cc4ncc(O)cc34)CC2)nc1 [Compound 19c, 5-(((1s,4s)-4-((5-Methoxypyrimidin-2-yl)amino)cyclohexyl)oxy)-7-morpholino-1,6-naphthyridin-3-ol]"
0.5 to 1,500 to 1000,500 to 1000,500 to 1000,"c1cnc(N[C@H]2CC[C@@H](Oc3nc(N4CCOCC4)cc4ncccc34)CC2)nc1 [Compound 20a, N-((1s,4s)-4-((7-Morpholino-1,6-naphthyridin-5-yl)oxy)cyclohexyl)pyrimidin-2-amine]"
0.5 to 1,10000 to 100000,,10000 to 100000,"FC(F)c1ccc2c(O[C@H]3CC[C@@H](Nc4ncccn4)CC3)nc(N3CCOCC3)cc2n1 [Compound 21, N-((1s,4s)-4-((2-(Difluoromethyl)-7-morpholino-1,6-naphthyridin-5-yl)oxy)cyclohexyl)pyrimidin-2-amine]"
< 0.5,500 to 1000,,500 to 1000,"FC(F)c1ccnc2cc(N3CCOCC3)nc(O[C@H]3CC[C@@H](Nc4ncccn4)CC3)c12 [Compound 22, N-((1s,4s)-4-((4-(Difluoromethyl)-7-morpholino-1,6-naphthyridin-5-yl)oxy)cyclohexyl)pyrimidin-2-amine]"
0.5 to 1,1000 to 10000,,1000 to 10000,"c1cnc2cc(N3CCOCC3)nc(O[C@H]3CC[C@@H](Nc4cncnc4)CC3)c2c1 [Compound 28, N-((1s,4s)-4-((7-morpholino-1,6-naphthyridin-5-yl)oxy)cyclohexyl)pyrimidin-5-amine]"
< 0.5,1000 to 10000,,1000 to 10000,"Cn1cnc(N[C@H]2CC[C@@H](Oc3nc(N4CCOCC4)cc4ncccc34)CC2)n1 [Compound 31, 1-methyl-N-((1s,4s)-4-((7-morpholino-1,6-naphthyridin-5-yl)oxy)cyclohexyl)-1H-1,2,4-triazol-3-amine]"
< 0.5,1000 to 10000,1000 to 10000,1000 to 10000,"Cc1cnc(N[C@H]2CC[C@@H](Oc3nc(N4CCOCC4)cc4ncccc34)CC2)nc1 [Compound 32, 5-Methyl-N-((1s,4s)-4-((7-morpholino-1,6-naphthyridin-5-yl)oxy)cyclohexyl)pyrimidin-2-amine]"
0.5 to 1,1000 to 10000,1000 to 10000,1000 to 10000,"FC(F)(F)c1cnc(N[C@H]2CC[C@@H](Oc3nc(N4CCOCC4)cc4ncccc34)CC2)nc1 [Compound 34, N-((1s,4s)-4-((7-Morpholino-1,6-naphthyridin-5-yl)oxy)cyclohexyl)-5-(trifluoromethyl)pyrimidin-2-amine]"
1 to 10,1000 to 10000,1000 to 10000,1000 to 10000,"FC(F)Oc1cnc(N[C@H]2CC[C@@H](Oc3nc(N4CCOCC4)cc4ncccc34)CC2)nc1 [Compound 35, 5-(Difluoromethoxy)-N-((1s,4s)-4-((7-morpholino-1,6-naphthyridin-5-yl)oxy)cyclohexyl)pyrimidin-2-amine]"
0.5 to 1,1000 to 10000,,1000 to 10000,"COc1ccc(N[C@H]2CC[C@@H](Oc3nc(N4CCOCC4)cc4ncccc34)CC2)nn1 [Compound 38, 6-methoxy-N-((1s,4s)-4-((7-morpholino-1,6-naphthyridin-5-yl)oxy)cyclohexyl)pyridazin-3-amine]"
< 0.5,10 to 500,,10 to 500,"Nc1cnc(N[C@H]2CC[C@@H](Oc3nc(N4CCOCC4)cc4ncccc34)CC2)nc1 [Compound 43, N2-((1s,4s)-4-((7-morpholino-1,6-naphthyridin-5-yl)oxy)cyclohexyl)pyrimidine-2,5-diamine]"
< 0.5,500 to 1000,,500 to 1000,"CS(=O)(=O)Nc1cnc(N[C@H]2CC[C@@H](Oc3nc(N4CCOCC4)cc4ncccc34)CC2)nc1 [Compound 44, N-(2-(((1s,4s)-4-((7-morpholino-1,6-naphthyridin-5-yl)oxy)cyclohexyl)amino)pyrimidin-5-yl)methanesulfonamide]"
0.5 to 1,500 to 1000,,500 to 1000,"Oc1cnc(N[C@H]2CC[C@@H](Oc3nc(N4CCOCC4)cc4ncccc34)CC2)nc1 [Compound 45, 2-(((1s,4s)-4-((7-morpholino-1,6-naphthyridin-5-yl)oxy)cyclohexyl)amino)pyrimidin-5-ol]"
0.5 to 1,500 to 1000,,500 to 1000,"NS(=O)(=O)c1cnc(N[C@H]2CC[C@@H](Oc3nc(N4CCOCC4)cc4ncccc34)CC2)nc1 [Compound 46, 2-(((1s,4s)-4-((7-morpholino-1,6-naphthyridin-5-yl)oxy)cyclohexyl)amino)pyrimidine-5-sulfonamide]"
< 0.5,500 to 1000,,500 to 1000,"Cc1ccnc(N[C@H]2CC[C@@H](Oc3nc(N4CCOCC4)cc4ncccc34)CC2)n1 [Compound 48, 4-methyl-N-((1s,4s)-4-((7-morpholino-1,6-naphthyridin-5-yl)oxy)cyclohexyl)pyrimidin-2-amine]"
0.5 to 1,1000 to 10000,,1000 to 10000,"COc1ccnc(N[C@H]2CC[C@@H](Oc3nc(N4CCOCC4)cc4ncccc34)CC2)n1 [Compound 49, 4-methoxy-N-((1s,4s)-4-((7-morpholino-1,6-naphthyridin-5-yl)oxy)cyclohexyl)pyrimidin-2-amine]"
< 0.5,10 to 500,,10 to 500,"NC(=O)c1cnc(N[C@H]2CC[C@@H](Oc3nc(N4CCOCC4)cc4ncccc34)CC2)nc1 [Compound 52, 2-(((1s,4s)-4-((7-morpholino-1,6-naphthyridin-5-yl)oxy)cyclohexyl)amino)pyrimidine-5-carboxamide]"
0.5 to 1,500 to 1000,,500 to 1000,"CN(C)C(=O)c1cnc(N[C@H]2CC[C@@H](Oc3nc(N4CCOCC4)cc4ncccc34)CC2)nc1 [Compound 53, N,N-dimethyl-2-(((1s,4s)-4-((7-morpholino-1,6-naphthyridin-5-yl)oxy)cyclohexyl)amino)pyrimidine-5-carboxamide]"
< 0.5,10 to 500,,10 to 500,"c1cnc2cc(N3CCOCC3)nc(O[C@H]3CC[C@@H](Nc4ncnc5ccoc45)CC3)c2c1 [Compound 80a, N-((1s,4s)-4-((7-morpholino-1,6-naphthyridin-5-yl)oxy)cyclohexyl)furo[3,2-d]pyrimidin-4-amine]"
< 0.5,500 to 1000,,500 to 1000,"Cc1nc(N[C@H]2CC[C@@H](Oc3nc(N4CCOCC4)cc4ncccc34)CC2)c2occc2n1 [Compound 81, 2-methyl-N-((1s,4s)-4-((7-morpholino-1,6-naphthyridin-5-yl)oxy)cyclohexyl)furo[3,2-d]pyrimidin-4-amine]"
< 0.5,10 to 500,,10 to 500,"c1cnc2cc(N3CCOCC3)nc(O[C@H]3CC[C@@H](Nc4ncnc5occc45)CC3)c2c1 [Compound 82, N-((1s,4s)-4-((7-morpholino-1,6-naphthyridin-5-yl)oxy)cyclohexyl)furo[2,3-d]pyrimidin-4-amine]"
< 0.5,10 to 500,,10 to 500,"c1cnc2cc(N3CCOCC3)nc(O[C@H]3CC[C@@H](Nc4ncnc5ccsc45)CC3)c2c1 [Compound 83, N-((1s,4s)-4-((7-morpholino-1,6-naphthyridin-5-yl)oxy)cyclohexyl)thieno[3,2-d]pyrimidin-4-amine]"
